According to US20040058855A1, “Use of materials having zinc ionophoric behavior” (priority 2002, published 2004):
Read-outs that look alike come from different tables or passages of the source.

Legend:
[1] = tested on: Malassezia furfur (ATCC 14521); test: Minimum inhibitory concentration (MIC) against Malassezia furfur in mDixon agar; type: cell-based; conditions: for MIC: Malassezia furfur, lowest tested dilution with no visible growth, 30° for 5 days
Experimental: Antifungal activity is assessed microbiologically by a method as described below^1.
^1. The Minimum Inhibitory Concentration is indicative of anti-fungal efficacy. Generally, the lower the value of the composition, the better its anti-fungal efficacy, due to increased inherent ability of the anti-dandruff agent to inhibit the growth of microorganisms.
Dilutions of solubilized anti-microbial active were then added to test tubes containing molten mDixon agar. M. furfur inoculum was added to each tube of molten agar, the tube vortexed, and the contents poured into separate sterile petri dishes. […] The lowest tested dilution of anti-microbial active that yields no growth is defined as the Minimal Inhibitory Concentration (MIC).
1) Malassezia furfur was grown in a 250 ml Erlenmeyer flask containing 100 ml “mDIXON” medium at 320 rpm and 30° C. until turbid.
2) Selected dilutions were prepared using an appropriate dilution series, of the anti-microbial active or combination in solvent, which allowed the sample active to be solubilized prior to addition to the final test agar.
3) 0.25 ml dilutions of anti-microbial active were added to test tubes containing 9.5 ml molten “mDIXON” agar (held at 45° C. in a water bath).
4) 0.25 M. furfur inoculum (adjusted to 5×10^5 cfu/ml by direct count) was added to each test tube of molten agar.
5) Each tube was vortexed, and the contents poured into separate petri dishes.
6) After the agar solidified, the plates inverted and incubated at 30° for 5 days.
7) The plates were then observed for visible M. furfur growth.
Anti-fungal activity of materials having zinc ionophoric behavior was screened by measurement of minimum inhibitory concentrations (MIC's) against Malassezia furfur.

[2] = tested on: human umbilical vein endothelial cells; test: Rate of zinc transport into model cells (intracellular zinc, Fura-2 fluorescence); type: cell-based; conditions: 1 mM ZPT (0.32 ppm) and an equal weight proportion of zinc salt
Experimental: Measurement of the free zinc levels in cells as a function of time is a direct measure of delivery of zinc across the cell wall/membrane. There are many methods available for assessing this process, many are based on use of intracellular fluorescent dyes. An exemplary method is similar to that reported by Turan et al. (Turan, […]. Am. J. Physiol. 1997, 272, […]-[…]). In this case, […] used, although the procedure is general and can be used with all eukaryotic cells. […] Cells are plated onto a glass cover slip. These immobilized cells are then exposed to a zinc-responsive fluorescent dye such as Fura-2 (Molecular Probes, Inc.) to load the cells with this cell-permeant fluorophore. The cells are then washed to remove dye that is not intracellular. Upon exposure to test treatments, fluorescence is measured as a function of time; in the case of Fura-2, the ratio of fluorescence intensities at 505 nm is taken in response to excitation at 340 and 380 nm. The fluorescence is conveniently measured by using an epifluorescence inverted microscope interfaced to a spectrofluorometer. Fluorescence intensity is proportional to the detected zinc level. […] TPEN) to assure the measured fluorescent response is due to zinc and not an artifact of calcium transport. In the present invention, the method as described herein may be used to identify materials with zinc ionophoric behavior.

[3] = Zinc availability test with metallochromic dye zincon (colour change orange to blue); type: physicochemical; conditions: ~30 mg/10 ml water, pH 7-11, zincon in ethanol
Description: Zinc-containing materials (ZCMs) differ with respect to how strongly the zinc ion (Zn^2+) is held by counterions in the crystal lattice. The benefits discussed herein depend upon having available Zn^2+. […] The response is a binary visual assessment of whether or not the color changes indicating zinc-binding.
The method is based on the commercial metallochromic dye zincon. Zincon changes from an orange color to blue upon binding zinc and provides the basis for detecting available Zn^2+: [drawing 20]
The specific procedure involves making a stock solution of zincon in ethanol (˜50 mg/10 ml ethanol). The ZCM is then added to water (˜30 mg/10 ml water) and agitated (pH range should be 7-11). Three to four drops of zincon solution are then added to the ZCM in water, agitated and a visual assessment of color change made.

[4] = ATCC14521, 120 h, read-out: MIC
[5] = to inhibit M. furfur growth, zinc salt alone (MIC) or together with the stated amount of ZPT

Compound	available Zn^2+ (zincon colour change, binary visual assessment) [3]	also measured
Oc1c(Br)cc(Br)c2cccnc12 [5,7-D-Br-8-HQ, 5-7-Bibromo-8-hydroxyquinoline]	–	MIC [1, 4]: 25 µg/mL
CNc1ccc2oc(C[C@H]3O[C@@]4(CC[C@H]3C)O[C@H]([C@H](C)C(=O)c3ccc[nH]3)[C@H](C)C[C@H]4C)nc2c1C(=O)O [A23187, Calcimycin]	–	MIC [1, 4]: > 13 µg/mL
Oc1c(I)cc(I)c2cccnc12 [Diodoquin, 5,7-Diiodo-8-hydroxyquinoline]	–	MIC [1, 4]: 25 µg/mL
Oc1c(I)cc(Cl)c2cccnc12 [Enterovioform, 5-Cl, 7-I-8-hydroxyquinoline]	–	MIC [1, 4]: 25 µg/mL
Cc1ccc2c(Cl)cc(Cl)c(O)c2n1 [Sterosan, 2-Me, 5,7-Dichloro-8-hydroxyquinoline]	–	MIC [1, 4]: 100 µg/mL
CCCCN(CCCC)C(=S)SSC(=S)N(CCCC)CCCC [TBTDS, Tetra-n-butyl thiuram Disulfide]	–	MIC [1, 4]: > 1000 µg/mL
[O-]n1ccccc1=S.[O-]n1ccccc1=S.[Zn+2] [ZPT, zinc salt of 1-hydroxy-2-pyridinethione]	–	Rate of Zinc Transport [2]: 4 min⁻¹; Antifungal activity of ZPT: Amount of zinc salt required [1, 5]: 0 ppm; Antifungal activity of ZPT: Amount of ZPT Required (%) ([1]; to inhibit M. furfur growth, 100% ZPT is equivalent to 8 ppm (MIC of ZPT alone)): 100%
[O]=[Zn] [ZnO, zinc oxide]	have available zinc	Rate of Zinc Transport [2]: ˜0 min^−1; Antifungal activity of ZPT: Amount of zinc salt required [1, 5]: 500 ppm
O=S(=O)([O-])[O-].[Zn+2] [ZnSO4, zinc sulfate]	have available zinc	Rate of Zinc Transport [2]: ˜0 min^−1; Antifungal activity of ZPT: Amount of zinc salt required [1]: 5000 ppm
O=C([O-])CN(CCN(CC(=O)[O-])CC(=O)[O-])CC(=O)[O-].[Na+].[Na+].[Zn+2] [zinc EDTA]	not having available Zn^2+	–
CC(=O)[O-].CC(=O)[O-].[Zn+2] [zinc acetate]	have available zinc	–
N=C(N)NCCC[C@H](N)C(=O)O.[Zn] [zinc arginine]	have available zinc	–
[Cl-].[Cl-].[Zn+2] [zinc chloride]	have available zinc	–
O=C([O-])CC(O)(CC(=O)[O-])C(=O)[O-].O=C([O-])CC(O)(CC(=O)[O-])C(=O)[O-].[Zn+2].[Zn+2].[Zn+2] [zinc citrate]	have available zinc	–
[OH-].[OH-].[Zn+2] [zinc hydroxide]	have available zinc	–
CC(O)C(=O)[O-].CC(O)C(=O)[O-].[Zn+2] (centres unmarked) [zinc lactate]	have available zinc	–
OCC(O)CO.[Zn] [zinc monoglycerolate]	have available zinc	–
O=C([O-])C(=O)[O-].[Zn+2] [zinc oxalate]	have available zinc	–
Lasalocid	–	MIC [1]: >1000 ppm
zinc hexaborate	have available zinc	–
zinc histadine	have available zinc	–
zinc phytate	not having available Zn^2+	–
zinc stearate	have available zinc	–
